# Measurements from article PMC7663272, “Discovery of Tricyclic Pyranochromenone as Novel Bruton’s Tyrosine Kinase Inhibitors with In Vivo Antirheumatic Activity” (International Journal of Molecular Sciences, 2020).
# Experiments:
# CYP3A4 = target: T1, CYP3A4 (Homo sapiens, UniProt P08684); test: P450-Glo CYP inhibition assay, CYP3A4; type: in vitro ADME
# T1 construct: purchased Promega V9920
# Method: (§1) The potential for CYP450 inhibition (CYP1A2, 2C9, 2C19, 2D6, and […]) was assessed using Promega P450-Glo^TM CYP450 assay systems. Luciferin-ME served as the substrate for CYP1A2, and the inhibitor α-naphthoflavone was used as a positive control. Luciferin-H was used as the substrate for CYP2C9, and the inhibitor sulfaphenazole was used as a positive control. Luciferin-H EGE was selected as the substrate for CYP2C19, whereas the inhibitor amitriptyline served as a positive control. Luciferin-ME EGE was used as the substrate for CYP2D6, whereas the inhibitor quinidine served as a positive control. Luciferin-BE was used as the substrate for CYP3A4, whereas the inhibitor ketoconazole was used as a positive control. The assays were performed using the excitation and emission wavelengths recommended by the manufacturer. Briefly, a CYP enzyme and a P450-Glo™ substrate were combined in potassium phosphate (0.1 M KPO4) buffer, with or without a test compound of interest, and […]. The reaction was initiated by adding two volumes of 2 times concentrated NADPH regeneration system. […] Luminescence was subsequently measured using a Tecan Infinite M1000 PRO microplate reader (Tecan Group Ltd., Switzerland). The percent inhibition was calculated relative to that of the positive control at a fixed concentration. […]
# TXK = target: T2, TXK (Homo sapiens, UniProt P42681); test: HotSpot kinase enzymatic assay, TXK; type: biochemical
# T2 construct: purchased Reaction Biology Corporation
# T2 sequence (P42681 1-527): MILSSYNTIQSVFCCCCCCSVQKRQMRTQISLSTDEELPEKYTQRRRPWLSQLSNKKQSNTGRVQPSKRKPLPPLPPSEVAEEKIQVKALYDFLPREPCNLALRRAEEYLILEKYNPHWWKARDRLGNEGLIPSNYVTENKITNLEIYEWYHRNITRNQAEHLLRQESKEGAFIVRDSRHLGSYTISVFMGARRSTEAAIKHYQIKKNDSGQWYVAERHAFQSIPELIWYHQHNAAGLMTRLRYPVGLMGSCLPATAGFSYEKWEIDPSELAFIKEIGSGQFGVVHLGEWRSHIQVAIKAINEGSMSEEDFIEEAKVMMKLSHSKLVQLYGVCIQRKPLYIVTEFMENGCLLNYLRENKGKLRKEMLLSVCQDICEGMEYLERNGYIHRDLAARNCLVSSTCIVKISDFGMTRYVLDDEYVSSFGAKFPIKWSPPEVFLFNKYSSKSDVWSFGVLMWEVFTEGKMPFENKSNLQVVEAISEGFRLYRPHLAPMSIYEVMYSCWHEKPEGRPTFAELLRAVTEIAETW
# Method: Therefore, efforts have focused on developing new compounds with good selectivity profiles. […] Compound 8 was selective against BTK. The biochemical activities of compound 8 differed among TEC family kinases. […] The inhibitory potential of compound 8 differed between members of the EGFR family. […] The inhibitory activity of compound 8 against JAK3 was also low.
# Kinase enzymatic assays for BTK, BMX, TXK, TEC, ITK, EGFR, ERBB2, ERBB4, and JAK3 were performed at Reaction Biology Corporation (www.reactionbiology.com, Malvern, PA, USA) using the HotSpot assay platform. Briefly, specific kinase/substrate pairs and the required cofactors were prepared in a reaction buffer comprising 20 mM HEPES (pH 7.5), 10 mM MgCl2, 1 mM EGTA, 0.02% Brij35, 0.02 mg/mL BSA, 0.1 mM Na3VO4, 2 mM DTT, and 1% DMSO. The compounds were added to the reaction mixture and allowed to incubate. Approximately 20 min later, a mixture of ATP (Sigma-Aldrich, St. Louis, MO, USA) and ^33P ATP (PerkinElmer, Waltham, MA, USA) was added to the reaction mixture at a final concentration of 10 μM. The reactions were performed at room temperature for 120 min; subsequently, the reactions were spotted onto P81 ion exchange filter papers (Whatman Inc., Maidstone, UK). Any unbound phosphate was removed by thoroughly washing the filter papers with 0.75% phosphoric acid. […]
# CYP1A2 = target: T3, CYP1A2 (Homo sapiens, UniProt P05177); test: P450-Glo CYP inhibition assay, CYP1A2; type: in vitro ADME
# T3 construct: purchased Promega V9770
# T3 sequence (P05177 1-516): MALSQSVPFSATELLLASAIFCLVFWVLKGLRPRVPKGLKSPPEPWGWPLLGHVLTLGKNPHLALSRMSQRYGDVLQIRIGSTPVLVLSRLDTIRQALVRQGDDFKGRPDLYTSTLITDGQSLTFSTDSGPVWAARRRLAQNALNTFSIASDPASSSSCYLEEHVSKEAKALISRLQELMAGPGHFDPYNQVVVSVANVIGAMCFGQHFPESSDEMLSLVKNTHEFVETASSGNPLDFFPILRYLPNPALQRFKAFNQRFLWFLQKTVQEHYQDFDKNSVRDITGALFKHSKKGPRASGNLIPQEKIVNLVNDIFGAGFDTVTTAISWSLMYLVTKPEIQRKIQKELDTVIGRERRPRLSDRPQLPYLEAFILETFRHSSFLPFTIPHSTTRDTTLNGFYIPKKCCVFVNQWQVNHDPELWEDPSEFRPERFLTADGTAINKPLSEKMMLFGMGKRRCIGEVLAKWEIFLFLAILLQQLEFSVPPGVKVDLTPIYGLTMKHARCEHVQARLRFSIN
# Method: as §1
# [1] = % inhibition of human CYP isozymes at 10 μM
# T1 sequence (P08684 whole entry): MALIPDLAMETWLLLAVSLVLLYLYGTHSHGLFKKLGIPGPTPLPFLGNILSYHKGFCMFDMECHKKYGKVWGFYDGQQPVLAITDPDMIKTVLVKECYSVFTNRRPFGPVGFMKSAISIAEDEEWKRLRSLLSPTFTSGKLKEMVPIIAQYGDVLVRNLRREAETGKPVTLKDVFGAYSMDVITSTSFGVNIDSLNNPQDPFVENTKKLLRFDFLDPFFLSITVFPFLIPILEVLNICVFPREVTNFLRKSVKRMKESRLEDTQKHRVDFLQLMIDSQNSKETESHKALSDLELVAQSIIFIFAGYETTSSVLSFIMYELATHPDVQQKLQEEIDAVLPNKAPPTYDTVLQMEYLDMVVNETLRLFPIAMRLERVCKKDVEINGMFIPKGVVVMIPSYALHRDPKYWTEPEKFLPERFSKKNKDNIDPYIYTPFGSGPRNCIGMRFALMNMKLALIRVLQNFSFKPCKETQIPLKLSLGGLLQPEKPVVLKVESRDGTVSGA
structure (smiles),measurement,setting,value
"C=CC(=O)O[C@H]1Cc2cc3ccc(=O)oc3cc2OC1(C)C [Compound 8, (7S)-(+)-Acrylic acid, 8,8-dimethyl-2-oxo-6,7-dihydro-2H,8H-pyrano [3,2-g]chromen-7-yl ester]",CYP3A4 inhibition (in words),CYP3A4,rarely inhibited
same,CYP inhibition 3A4,CYP3A4; [1],<1%
same,inhibitory activity against TXK (in words),TXK,strong inhibitory activity
same,inhibition at 10 µM,"TXK; 10 µM, mean of two experiments",88.5%
same,CYP1A2 inhibition (in words),CYP1A2,rarely inhibited
same,CYP inhibition 1A2,CYP1A2; [1],<1%
